The values below come from patent publication US10517861B2, “Biomarkers for predicting and assessing responsiveness of endometrial cancer subjects to lenvatinib compounds” (Eisai R&D Management Co., Ltd., priority 2013, dated 2019).

The experiment deals with cytokine, chemokine and angiogenic factors (CAFs). Kind of experiment: Plasma cytokine, chemokine and angiogenic factor (CAF) levels pre- and post-treatment with E7080 (ELISA and multiplex). Format: in vivo, human. The note with it: cycle 2 day 1 vs cycle 1 day 1 (baseline), 122 patients. The text has this: The purpose of this analysis was to measure cytokine, chemokine and angiogenic factors in blood samples, such as plasma and serum, obtained from patients in clinical trials at both pre- and post-treatment with E7080 and to identify blood biomarkers which can be used to predict whether patients will respond to treatment with E7080. For these analyses, the following criteria of response were employed, namely:
Materials and Methods: Patients who had metastatic/unresectable endometrial cancer after 1 or 2 prior platinum-based treatments received lenvatinib until disease progression or development of unmanageable toxicities. Patients received E7080 at a starting dose of 24 mg orally once daily in 28 day cycles. 133 patients were treated and evaluated for efficacy and molecular correlative analysis. This study was a part of the Phase 2 multicenter study of lenvatinib (ClinicalTrial.gov Identifier: NCT01111461). Baseline and post-treatment plasma samples were collected for molecular analyses. […] The association of progression free survival (PFS) and overall survival (OS) were analyzed. […] The ELISA plates were measured using a Molecular Devices UVmax kinetic microplate reader with SoftMax Pro 5.2 software. […] Final protein concentrations (pg/mL) were calculated from the standard curve for each assay. […]
Background: In an ELISA, binding on a coated surface is turned into a signal by an enzyme label.

In the case of `COc1cc2nccc(Oc3ccc(NC(=O)NC4CC4)c(Cl)c3)c2cc1C(N)=O` [E7080, 4-(3-chloro-4-(cyclopropylaminocarbonyl)aminophenoxy)-7-methoxy-6-quinolinecarboxamide], the “changes in levels of CAFs at post-treatment compared to pre-treatment” value was “Significant changes in levels of 19 CAFs among 50 CAFs tested”.
